Assays:
[1] = tested on: inflammatory cytokines IL-6 and IL-12; assay: Anti-asthma pharmacodynamic experiment: inflammatory cytokines in bronchoalveolar lavage fluid (ELISA); type: in vivo, female BALB/c mice; conditions: compared with the model group
[2] = tested on: inflammatory cytokines (TNF-α); assay: Anti-uveitis pharmacodynamic experiment (LPS model): inflammatory cytokines in aqueous humor (ELISA); type: in vivo, male SD rats; conditions: values not given
Procedure, shortened: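 Male SD rats given uveitis by single subplantar injection of LPS (Salmonella) 1 mg/kg, then bilateral ocular dosing of 40 µL 5 mg/5 mL ophthalmic suspension three times daily for 2 days.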

asthma model mice = assay: Anti-asthma pharmacodynamic experiment: airway hyperresponsiveness (Penh) after methacholine challenge; type: in vivo, female BALB/c mice; conditions: compared with the model group
uveitis model rats = assay: Anti-uveitis pharmacodynamic experiment (LPS model): ocular pathological score; type: in vivo, male SD rats; conditions: compared with the model group
Protocol: Pharmacodynamic Experiment on Anti-Uveitis
Positive control drug: Fluorometholone Eye Drops (specification: 5 mL/5 mg; Santen Pharmaceutical (CHINA) Co., Ltd.; Lot No. : J20180068) was used as the positive control drug and stored at room temperature protected from light until use.
Fifty male SD rats underwent a one-week adaptive feeding period. […] Groups 2 to 5 were used to establish rat uveitis models by single subcutaneous injection of 1 mg/kg LPS (Salmonella; Sigma; Lot No. 0000164114) into the plantar tissue of the hindpaw. Salmonella endotoxin was dissolved in normal saline to prepare an injection solution at a concentration of 2 mg/mL, which was injected subcutaneously at 1 mg/kg into the plantar tissue of one paw of the rats. Group 1 was injected with an equal volume of normal saline.
At the end of the experiment, photos of the rats' eyes were taken using a slit-lamp microscope, and the differences in ocular lesions of rats among groups were compared and analyzed.
Statistical analysis was performed using SPSS software. Measurement data were expressed as mean ± standard deviation. One-way ANOVA was used for intergroup comparisons. For data with homogeneous variance, LSD test was used; for data with heterogeneous variance, Dunnett-t test was used. A value of P < 0.05 was considered statistically significant.

[3] = Pharmacokinetic (PK) experiment in rats; type: in vivo, male SD rats; conditions: same experimental conditions
Procedure, shortened: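 Male SD rats dosed by body weight, oral group fasted overnight until 4 h post-dose. Jugular blood sampled 2 min–24 h into heparin; plasma analysed and PK parameters derived from concentration–time data.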

epidermal layer in rats = assay: Adverse reactions of continuous dermal administration: thickness of the epidermal layer (H&E sections); type: in vivo, SD rats; conditions: compared with the blank control group
Procedure, shortened: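 SPF SD rats (230-250 g, both sexes) received topical application on a shaved 5 cm × 6 cm back area twice daily for one week, controls receiving blank matrix. Epidermal thickness then quantified on H&E-stained back skin sections at ×40.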

psoriasis model mice = assay: Psoriasis experiment (imiquimod model): skin lesion (PASI) score; type: in vivo; conditions: compared with the model group
[4] = tested on: dry eye syndrome model New Zealand rabbits; assay: Dry eye syndrome experiment (benzalkonium chloride model): tear secretion test with phenol red cotton threads; type: in vivo, male New Zealand White rabbits; conditions: compared with the model group
Protocol: Positive control drug: Fluorometholone Eye Drops (specification: 5 mL/5 mg; Santen Pharmaceutical (CHINA) Co., Ltd.; Lot No.: 1FM6625) was used as the positive control drug and stored at room temperature protected from light until use.
Thirty male New Zealand White rabbits (conventional grade) were prepared. Six rabbits were randomly selected as the blank control group, and the remaining animals were administered 0.1% benzalkonium chloride to the left eye twice daily (morning and evening) , 10 µL/animal each time. On day 6 of modeling, tear secretion was measured using phenol red cotton threads to determine whether the model was successfully established. […] During the administration, all animals except the blank control group were administered 10 µL of 0.1% benzalkonium chloride to the left eye once daily to maintain dry eye symptoms..
• Test time: D3, D7, D15; • Test animals: All animals were tested before grouping; all enrolled surviving animals were tested after administration; • Test method: Tear secretion was measured using phenol red cotton threads. The tear secretion test paper was folded and placed at the middle and outer 1/3 of the rabbit palpebral conjunctival sac for 1 min. The test paper was then removed, observed, and recorded for its wetting length. The test was repeated 3 times, and the values were averaged.
The normality and homogeneity of variance were tested by Levene's test. If there was no statistical significance (P > 0.05), one-way analysis of variance (ANOVA) was used for statistical analysis. If ANOVA was statistically significant (P ≤ 0.05), LSD test (parametric method) was used for comparative analysis. If the variance was heterogeneous (P ≤ 0.05), Kruskal-Wallis test was used. If the Kruskal-Wallis test was statistically significant (P ≤ 0.05), Dunnett's test (nonparametric method) was used for comparative analysis.

IL-17 = assay: Psoriasis experiment (imiquimod model): inflammatory cytokine in serum (ELISA); type: in vivo, mice; conditions: compared with the model group
Protocol: Positive control drug: Fluticasone Propionate Cream (specification: 0.05% × 15 g, Zhejiang Xianju Pharmaceutical Co. Ltd., Lot No. 211106), stored at room temperature protected from light until use.
Adult mice were selected, and the skin of 2 cm × 3 cm on the back of mice was locally depilated. The mice in the model group and drug administration group were applied with 62.5 mg of 5% imiquimod cream on their back for modeling, while the mice in the blank control group were applied with medical petroleum jelly on their back daily. The above procedures were performed once a day for 7 consecutive days.
The mice in the drug administration group were applied with the corresponding drugs on their backs daily at a dose of 0.2 g per mouse, while the blank control group and the model group were only applied with 0.2 g of the test sample drug matrix. One hour after drug administration, the drugs were wiped off with sterile cotton swabs, followed by the application of imiquimod. The above procedures were performed once a day for 7 consecutive days.
After the PASI scoring on day 8 of modeling, blood was collected from the orbital sinus of mice and centrifuged at 3000 rpm for 10 min. The supernatant was extracted to measure the level of IL-17. All procedures were performed following the instructions of the ELISA kit.
Statistical analysis was performed using SPSS software, and the results were expressed as mean ± standard deviation. One-way ANOVA was used for intergroup comparisons. For data with homogeneous variance, the LSD test was used; for data with heterogeneous variance, the Dunnett-t test was used. A value of P < 0.05 was considered statistically significant.

Structure (SMILES): C[C@]12C=CC(=O)C=C1CC[C@H]1[C@@H]3C[C@H]4OC(c5ccc(CSC6CCOC6=O)nc5)O[C@@]4(C(=O)CO)[C@@]3(C)C[C@H](O)[C@@]12Cl (stereo partly drawn) [Compound 48, (6aS,6bR,7S,8aS,8bS,11aR,12aS,12bS)-6b-Chloro-7-hydroxy-8b-(2-hydroxyacetyl)-6a,8a-dimethyl-10-(6-(((2-oxotetrahydrofuran-3-yl)thio)methyl)pyridin-3-yl)-1,2,6a,6b,7,8,8a,8b,11a,12,12a,12 b-dodecahydro-4H-naphtho[2',1':4,5]indeno[1,2-d][1,3]dioxol-4-one]
- Effects on inflammatory cytokines in bronchoalveolar lavage fluid of mice [1]: pharmacological effects similar to those of compound 23
- inflammatory cytokines in aqueous humor [2]: suppressed inflammatory cytokines in aqueous humor
- Effects on airway hyperresponsiveness (Penh values) in mice (asthma model mice): significantly decreased the Penh values in mice
- ocular abnormalities / ocular pathological score (uveitis model rats): significantly improved ocular abnormalities
- pharmacokinetic properties (plasma clearance rate, systemic exposure) [3]: pharmacokinetic properties similar to those of compound 8
- thickness of the epidermal layer after continuous dermal administration (epidermal layer in rats): no significant changes in the thickness of the epidermal layer observed
- PASI scores (psoriasis model mice): significantly decreased PASI scores on day 7
- tear secretion [4]: significantly increased the tear secretion
- level of IL-17 / inflammatory cytokines in psoriasis model mice (IL-17): significantly inhibited inflammatory cytokines in the skin of psoriasis model mice

Structure (SMILES): C[C@]12C=CC(=O)C=C1CC[C@H]1[C@@H]3C[C@H]4OC(c5ccc(CSC6CCOC6=O)cn5)O[C@@]4(C(=O)CO)[C@@]3(C)C[C@H](O)[C@@]12Cl (stereo partly drawn) [Compound 51, (6aS,6bR,7S,8aS,8bS,11aR,12aS,12bS)-6b-Chloro-7-hydroxy-8b-(2-hydroxyacetyl)-6a,8a-dimethyl-10-(5-(((2-oxotetrahydrofuran-3-yl)thio)methyl)pyridin-2-yl)-1,2,6a,6b,7,8,8a,8b,11a,12,12a,12 b-dodecahydro-4H-naphtho[2',1':4,5]indeno[1,2-d][1,3]dioxol-4-one]
- Effects on inflammatory cytokines in bronchoalveolar lavage fluid of mice [1]: pharmacological effects similar to those of compound 23
- inflammatory cytokines in aqueous humor [2]: suppressed inflammatory cytokines in aqueous humor
- Effects on airway hyperresponsiveness (Penh values) in mice (asthma model mice): significantly decreased the Penh values in mice
- ocular abnormalities / ocular pathological score (uveitis model rats): significantly improved ocular abnormalities
- pharmacokinetic properties (plasma clearance rate, systemic exposure) [3]: pharmacokinetic properties similar to those of compound 8
- thickness of the epidermal layer after continuous dermal administration (epidermal layer in rats): no significant changes in the thickness of the epidermal layer observed
- PASI scores (psoriasis model mice): significantly decreased PASI scores on day 7
- tear secretion [4]: significantly increased the tear secretion
- level of IL-17 / inflammatory cytokines in psoriasis model mice (IL-17): significantly inhibited inflammatory cytokines in the skin of psoriasis model mice

Reference: patent EP4635969A1, “NOVEL GLUCOCORTICOID, METHOD FOR PREPARING SAME, AND USE THEREOF” (Tianjin Pharmaceutical Biotechnology Co., Ltd., priority 2022, dated 2024)
